Test results published in patent US20080318992A1, “METHOD OF USING A PKC INHIBITOR TO REVERSE PREFRONTAL CORTICAL DECLINES” (YALE UNIVERSITY, priority 2007, published 2008).
Read-outs that look alike come from different tables or passages of the source.

Key:
[1] = system: rat medial prefrontal cortex; details: systemic administration and infusions directly to the rat medial prefrontal cortex via implanted cannula; cited from earlier work
[2] = system: aged rhesus monkeys; experiment: Spatial delayed response task (working memory) in aged rhesus monkeys; assay type: in vivo, rhesus monkeys (Macaca mulatta); details: for delayed response performance: 1 h prior to testing
Source text: Performance on this task is reliant upon the integrity of the dorsolateral prefrontal cortex (Goldman-Rakic, 1987) and is consistently impaired in aged rhesus monkey (Bartus, et al., 1978; Rapp and Amaral, 1989).
The present study used 13 aged female rhesus monkeys (Macaca mulatta) ranging in age from 18 to 35 years at the time of testing. Actual birthdates were not available for several of the wild-caught animals and ages were estimated based on health records, teeth, and known history; several had been in the Yale University colony for more than 15 years. Monkeys were individually housed and maintained on a diet of Purina monkey chow (St. Louis, Mo.) supplemented with fruit.
Animals were tested at the same time of day immediately prior to feeding. Highly palatable food rewards (e.g., peanuts, raisins, or chocolate chips) were utilized during testing to minimize the need for dietary regulation. Animals were tested twice a week with 3-4 days separating each test session (e.g., Monday and Thursday). Cognitive testing of monkeys occurred in a Wisconsin General Testing Apparatus (WGTA) situated in a sound-attenuating room. Background masking noise (60 dB, wideband) was used to minimize auditory distractions.
The monkeys were trained on the spatial delayed response task as described previously (Arnsten, A. F., et al., J. Neurosci. (1988) δ: 4287-4298). For the delayed response task, the animal watched as the experimenter baited one of several food-wells with a food reward. The number of food-wells varied from two to four wells, depending on the monkey's performance level and experience with the task. Care was taken by the experimenter to ensure that the animal attended the baiting procedure. After baiting, food-wells were covered with identical plaques, and an opaque screen was lowered between the animal and the food-wells for a specified delay. At the end of the delay, the screen was raised and the animal was allowed to choose. Reward was quasi-randomly distributed between the wells. Five delay lengths (referred to as delays A through E) were quasi-randomly distributed over 30 trials. The shortest of these delays was ˜2 s (the “0” s, A delay). The remaining delays were titrated for individual monkeys such that each monkey maintained a baseline performance of 60-73% correct. For example, the delays for one animal might be A=0, B=5, C=10, D=15, and E=20 s.
Data were analyzed by comparing performance following treatment using a one-way repeated-measures ANOVA. […] Values were represented as means±SEM. Linear relationships between treatment response at the optimal dose of CHEL and age of the monkey (years) were analyzed in 10 monkeys with known birthdates using Pearson's test. In all cases, an α level of 0.05 was considered statistically significant.
All animals received all treatments conditions, with at least 7 days between treatments. The order of treatment administration was quasi-randomized.

[3] = systemic administration; cited from earlier work
[4] = system: aged rats; details: for change in percent-correct from mean 2-day baseline: 45 min prior to testing, N=5 aged rats

## COc1ccc2c(c[n+](C)c3c4cc5c(cc4ccc23)OCO5)c1OC [CHEL, Chelerythrine]
[1]
  stress induced working memory impairments: capable of reversing stress induced working memory impairments
[2]; 0.3 μg/kg oral
  performance of 3 oldest monkeys better than 3 youngest monkeys: > 20%
[2]; 0.3 μg/kg oral, N=13 aged monkeys, p=0.013 vs vehicle
  delayed response performance: 74.5±2.6 % correct
[2]; 0.3 ug/kg oral, 4 hrs after administration, p=0.012 compared to vehicle (FIG. 5)
  spatial working memory performance 4 hours after oral administration: improved performance
[2]; 0.3 μg/kg oral, 3 oldest monkeys, mean age 32.3 years
  performance of the 3 oldest monkeys: 85.6±4.4 % correct
[2]; 0.3 μg/kg oral, 3 youngest aged monkeys, mean age 20.7 years
  performance of the 3 youngest aged monkeys: 65.0±4.8 % correct
[2]; 3.0 μg/kg oral, N=13, p=0.151 vs vehicle
  delayed response performance: 71.5±1.9 % correct
[2]; 30.0 μg/kg oral, N=13, p=0.406 vs vehicle
  delayed response performance: 66.1±1.8%
[2]; individual best dose for all monkeys, oral, 4 hours, p=0.001 (FIG. 5)
  spatial working memory performance at best dose: reliably improved performance
[2]; oral, even at high doses (150 ug/kg), 4 hours (FIG. 5)
  serious deficits at high doses: no serious deficits were found
[3]
  working memory impairments following administration of cirazoline: reverse working memory impairments
[4]; 0.3 mg/kg subcutaneous, p=0.691 vs vehicle
  change in percent-correct from mean 2-day baseline: 8.6±5.4 % improvement
[4]; 1.0 mg/kg subcutaneous, p=0.047 vs vehicle
  change in percent-correct from mean 2-day baseline: 26±6.4 % improvement
[4]; 0.3 or 1.0 mg/kg subcutaneous, data not shown
  performance times (non-specific motor effects): performance times did not differ as a result of treatment
